Laboratory results as given in patent US20220281821A1, “INDAZOLE COMPOUNDS AND THEIR PHARMACEUTICAL COMPOSITIONS” (Jinan University, priority 2019, published 2022).
Like-named read-outs stand apart in the source and are kept apart here.

Legend:
BaF3-ETV6-NTRK3 = target: T1, BaF3-ETV6-NTRK3 (Homo sapiens, UniProt Q16288); test: Cell proliferation inhibition (CCK-8), BaF3-ETV6-NTRK3 stable strain; assay type: cell-based, mouse; conditions: BaF3-ETV6-NTRK3, 72 hours
T1 construct: fused on or other part: P41212 (Transcription factor ETV6)
In short: (§1)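 Ba/F3 cells stably electroporated with ETV6-NTRK3, CD74-NTRK1 or ETV6-NTRK2, selected with G418 and grown without IL3, then cloned by limiting dilution.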

BaF3-ETV6-NTRK2 = target: T2, BaF3-ETV6-NTRK2 (Homo sapiens, UniProt Q16620); test: Cell proliferation inhibition (CCK-8), BaF3-ETV6-NTRK2 stable strain; assay type: cell-based, mouse; conditions: BaF3-ETV6-NTRK2, 72 hours
T2 construct: fused on or other part: P41212 (Transcription factor ETV6)
In short: as §1

TRKB = target: T3, TRKB (Homo sapiens, UniProt Q16620); test: Z′-LYTE kinase activity assay, TRKB; assay type: biochemical; conditions: ATP 25 uM
T3 construct: purchased life technologies PV3616
In short: (§2)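 IC50 values were fitted to inhibition calculated from the emission-ratio-based phosphorylation ratio relative to negative control, across a compound concentration gradient.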

Ba/F3-TRK stable strains = test: Cell proliferation of Ba/F3-TRK stable strains, summary statements; assay type: cell-based, mouse; conditions: summary statement
Method: The brief steps of stable strain construction are as follows: construct a pCDNA3.1(+) plasmid vector carrying genes such as CD74-NTRK1, ETV6-NTRK2 and ETV6-NTRK3; the plasmid was electroporated into Ba/F3 cells using the Amaxa® Cell Line Nucleofector® Kit V; 48 hours after electroporated, G418 with a final concentration of 1000 μg/ml was added for screening for two weeks, and then IL3 was removed, and continued screening to obtain polyclonal stable strains; then single clones were selected by a limiting dilution method. The stable strains were then identified using positive drugs, WB and gene sequencing; and the monoclonal clones that were identified as completely correct may be used for the study of cell proliferation inhibitory activity of inhibitors.
Cell proliferation inhibition activity study: the cells in the logarithmic growth phase were seeded into 96-well plates at 8000-12000 cells/well, and inhibitors at different concentrations (0-10 μM) were added the next day, and incubation was continued for 72 hours; then 10 μL of CCK-8 reagent was added to each well, and the incubation was continued for 1-3 hours; and then use a super microplate reader to measure their absorbance values at 450 nm and 650 nm. The half-inhibition concentration (IC50) was calculated using GraphPad Prism 8.0.0.

TRKs (TRK1, TRK2, TRK3) = test: Kinase activity on TRKs, summary statements; assay type: biochemical; conditions: summary statement
Source text: Kinase activity assay: Z′-LYTE™ technology (detection by fluorescence, enzyme-conjugated format, based on the difference in sensitivity of phosphorylated and non-phosphorylated peptides to proteolytic cleavage) was applied, and using the principle of fluorescence resonance energy transfer (FRET), a Z′-LYTE™ FRET peptide substrate (Z′-LYTE™ Tyrosine 1 Peptide Substrate, Invitrogen, PV3190), and a secondary reaction were used to detect the inhibitory activity of the compounds on TRKs (TRK1, TRK2, TRK3) (life technologies, PV3144, PV3616, PV3617).
Enzymatic reaction: In a 384-well plate, 5 μL of an enzyme-substrate system (50 mM HEPES pH 7.5, 0.01% BRIJ-35, 10 mM MgCl2, 1 mM EGTA, 2 μM Tyr 01 Peptide Substrate) was added and 5 nL of compound (concentration gradient) was transferred thereto by using the echo520 ultramicro liquid pipetting system. After shaking for 10-20 min at room temperature, 200 nL, 12.5 nL and 25 nL of ATP (final concentrations are 400 uM, 25 uM and 50 uM, respectively) were transferred by using the echo520 ultramicro liquid pipetting system. After shaking and mixing, centrifuging was performed. A reaction was carried out at 30° C. in the dark for 1.5 hours.
Assay reaction: 2.54 of Development Solution (1:128 dilution) was added in each well, and incubated at 37° C. in the dark for 1 hour, and then 5 μL of Stop Reagent was added.
Plate reading: fluorescence signals were detected using a Perkin Elmer EnVision Multimode Plate Reader (excitation at 400 nm, and emission at 460 nm, and 535 nm).
Calculation: the inhibition rate of each well was calculated by the fully active well and control signal wells. The data were analyzed as follows:
Phosphorylation ratio=1−{(emission ratio×F100%−C100%)/[C0%−C100%+emission ratio×(F100%−F0%)]}×100;
Inhibition rate=100×(1−compound phosphorylation ratio/negative control phosphorylation ratio).
IC50 values were calculated by using GraphPad Prism 5.0 software.

TRKC = target: T4, TRKC (Homo sapiens, UniProt Q16288); test: Z′-LYTE kinase activity assay, TRKC; assay type: biochemical; conditions: ATP 50 uM
T4 construct: purchased life technologies PV3617
In short: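 Recombinant TRK kinase tested in a Z′-LYTE FRET assay with 2 μM Tyr 01 peptide substrate in 50 mM HEPES pH 7.5, 10 mM MgCl2, 1 mM EGTA, 0.01% BRIJ-35. IC50 obtained by curve fitting.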

[1] = Rat hepatocyte stability experiment; assay type: in vitro ADME; conditions: for Residual percentage (%) 0 min / Residual percentage (%) 5 min / Residual percentage (%) 15 min / Residual percentage (%) 30 min / Residual percentage (%) 60 min / Residual percentage (%) 120 min: average value; for half-life at 1 μM: rat, rat hepatocytes (suspension)
Method: In William medium E, dilute the 37° C. rat hepatocyte suspension to an appropriate density (viable cell density=2×10^6 cells/mL). In addition, a 2× quantification solution (the concentration of the test compound was 2 μM) was additionally prepared in William's medium E. The hepatocyte solution and 2× quantification solution were preheated in a water bath of 37° C. 40 µL of the preheated hepatocyte solution (2×10^6 cells/mL) was added into the designated wells for 5, 15, 30, 60, and 120 min, and add 40 µL of the preheated 2× quantification solution and start timing. An assay plate was placed in a 37° C., 5% CO2 incubator with shaking at 110 rpm. At 5, 15, 30, 60, and 120 minutes, 240 μL of ACN containing IS was added to each well. The plate was then sealed and stored in a −35° C. freezer. After collecting at all time points, the plate was shaken for 2 minutes and then centrifuging was performed for 15 minutes at 6000 rmp. 100 μL of supernatant from each well was transferred to a 96-well sample plate containing 100 μL of water for LC/MS analysis, determination of compound concentrations, calculation of rate constants and half-lives.

BaF3-CD74-NTRK1 = target: T5, BaF3-CD74-NTRK1 (Homo sapiens, UniProt P04629); test: Cell proliferation inhibition (CCK-8), BaF3-CD74-NTRK1 stable strain; assay type: cell-based, mouse; conditions: BaF3-CD74-NTRK1, 72 hours
T5 construct: fused on or other part: P04233 (HLA class II histocompatibility antigen gamma chain)
In short: as §1

TRKA = target: T6, TRKA (Homo sapiens, UniProt P04629); test: Z′-LYTE kinase activity assay, TRKA; assay type: biochemical; conditions: ATP 400 uM
T6 construct: purchased life technologies PV3144
In short: as §2

[2] = Pharmacokinetic evaluation in SD rats; assay type: in vivo
Method: Pharmacokinetics and oral bioavailability were tested in SD rats. According to the solubility of the drug, a single dose was administered orally, intravenously or by intraperitoneal injection. Animal blood samples were collected at different time points (0, 0.5, 1, 2, 4, 6, 8, and 24 hours), anticoagulated with heparin, and centrifuged to take the supernatant. Blood samples were analyzed by HPLC-MS. DAS2.1 was used for data analysis to detect half-life (T1/2), maximum blood concentration (Cmax), time to peak (Tmax), area under the drug-time curve (AUC), and bioavailability (BA) and other pharmacokinetic data.

T2 sequence (Q16620 538-822 limits assumed): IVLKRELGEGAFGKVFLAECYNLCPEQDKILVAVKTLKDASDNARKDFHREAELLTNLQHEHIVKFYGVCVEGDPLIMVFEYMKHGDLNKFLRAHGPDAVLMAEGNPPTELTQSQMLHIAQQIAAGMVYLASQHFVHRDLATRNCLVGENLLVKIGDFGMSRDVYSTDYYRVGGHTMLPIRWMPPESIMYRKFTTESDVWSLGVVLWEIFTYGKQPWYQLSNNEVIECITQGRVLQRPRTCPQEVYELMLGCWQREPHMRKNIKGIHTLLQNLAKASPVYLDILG
T1 sequence (Q16288 whole entry, the tested form may be a part): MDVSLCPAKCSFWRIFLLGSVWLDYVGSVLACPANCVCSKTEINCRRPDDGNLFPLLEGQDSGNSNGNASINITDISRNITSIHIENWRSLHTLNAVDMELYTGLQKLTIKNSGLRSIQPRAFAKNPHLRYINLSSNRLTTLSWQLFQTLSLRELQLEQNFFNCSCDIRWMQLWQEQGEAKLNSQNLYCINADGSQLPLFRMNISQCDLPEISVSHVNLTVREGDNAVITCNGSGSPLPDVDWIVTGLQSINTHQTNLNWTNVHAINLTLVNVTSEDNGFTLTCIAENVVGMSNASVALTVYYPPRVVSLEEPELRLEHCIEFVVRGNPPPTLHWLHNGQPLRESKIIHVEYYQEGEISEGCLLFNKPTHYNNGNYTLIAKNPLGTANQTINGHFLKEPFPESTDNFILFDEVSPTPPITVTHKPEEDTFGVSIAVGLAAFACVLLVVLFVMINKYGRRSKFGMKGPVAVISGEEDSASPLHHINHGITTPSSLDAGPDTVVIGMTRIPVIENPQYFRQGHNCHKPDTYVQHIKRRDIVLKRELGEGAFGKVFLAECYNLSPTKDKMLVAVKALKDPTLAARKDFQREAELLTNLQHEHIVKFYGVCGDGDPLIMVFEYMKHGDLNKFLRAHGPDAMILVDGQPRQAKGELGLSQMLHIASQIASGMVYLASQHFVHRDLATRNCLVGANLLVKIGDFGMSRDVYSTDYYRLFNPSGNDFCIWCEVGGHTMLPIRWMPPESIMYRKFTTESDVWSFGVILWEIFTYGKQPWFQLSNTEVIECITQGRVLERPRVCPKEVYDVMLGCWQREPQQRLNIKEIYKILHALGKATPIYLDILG
T5 sequence (P04629 510-796 limits assumed): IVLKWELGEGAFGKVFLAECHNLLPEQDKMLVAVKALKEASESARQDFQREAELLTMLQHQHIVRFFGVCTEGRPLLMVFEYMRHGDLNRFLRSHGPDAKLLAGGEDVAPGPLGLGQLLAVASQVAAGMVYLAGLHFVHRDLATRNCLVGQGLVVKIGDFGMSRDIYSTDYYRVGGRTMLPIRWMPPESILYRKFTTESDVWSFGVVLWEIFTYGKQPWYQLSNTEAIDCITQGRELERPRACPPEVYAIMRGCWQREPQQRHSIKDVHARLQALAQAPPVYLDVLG
T3 sequence (Q16620 32-822): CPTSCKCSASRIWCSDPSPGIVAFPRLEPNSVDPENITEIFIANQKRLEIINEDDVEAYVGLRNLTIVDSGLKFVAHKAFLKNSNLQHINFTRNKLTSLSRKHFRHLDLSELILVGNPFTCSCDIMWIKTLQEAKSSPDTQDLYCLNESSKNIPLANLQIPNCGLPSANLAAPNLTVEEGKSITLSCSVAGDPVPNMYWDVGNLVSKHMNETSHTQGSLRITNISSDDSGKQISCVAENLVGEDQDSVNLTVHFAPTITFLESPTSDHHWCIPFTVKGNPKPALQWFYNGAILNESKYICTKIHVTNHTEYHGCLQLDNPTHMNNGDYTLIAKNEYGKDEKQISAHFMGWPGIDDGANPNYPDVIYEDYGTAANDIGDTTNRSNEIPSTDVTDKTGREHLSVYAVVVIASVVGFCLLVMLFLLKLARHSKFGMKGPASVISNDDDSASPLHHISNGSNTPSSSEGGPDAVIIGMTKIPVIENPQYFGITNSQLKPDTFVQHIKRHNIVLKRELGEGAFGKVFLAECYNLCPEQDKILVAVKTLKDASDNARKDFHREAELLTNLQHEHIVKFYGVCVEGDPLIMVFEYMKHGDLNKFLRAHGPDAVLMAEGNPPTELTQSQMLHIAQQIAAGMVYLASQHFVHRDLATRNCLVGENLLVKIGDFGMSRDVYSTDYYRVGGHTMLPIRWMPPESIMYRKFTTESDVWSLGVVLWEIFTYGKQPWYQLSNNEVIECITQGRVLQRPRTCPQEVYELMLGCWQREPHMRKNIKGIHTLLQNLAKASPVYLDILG
T4 sequence (Q16288 32-839): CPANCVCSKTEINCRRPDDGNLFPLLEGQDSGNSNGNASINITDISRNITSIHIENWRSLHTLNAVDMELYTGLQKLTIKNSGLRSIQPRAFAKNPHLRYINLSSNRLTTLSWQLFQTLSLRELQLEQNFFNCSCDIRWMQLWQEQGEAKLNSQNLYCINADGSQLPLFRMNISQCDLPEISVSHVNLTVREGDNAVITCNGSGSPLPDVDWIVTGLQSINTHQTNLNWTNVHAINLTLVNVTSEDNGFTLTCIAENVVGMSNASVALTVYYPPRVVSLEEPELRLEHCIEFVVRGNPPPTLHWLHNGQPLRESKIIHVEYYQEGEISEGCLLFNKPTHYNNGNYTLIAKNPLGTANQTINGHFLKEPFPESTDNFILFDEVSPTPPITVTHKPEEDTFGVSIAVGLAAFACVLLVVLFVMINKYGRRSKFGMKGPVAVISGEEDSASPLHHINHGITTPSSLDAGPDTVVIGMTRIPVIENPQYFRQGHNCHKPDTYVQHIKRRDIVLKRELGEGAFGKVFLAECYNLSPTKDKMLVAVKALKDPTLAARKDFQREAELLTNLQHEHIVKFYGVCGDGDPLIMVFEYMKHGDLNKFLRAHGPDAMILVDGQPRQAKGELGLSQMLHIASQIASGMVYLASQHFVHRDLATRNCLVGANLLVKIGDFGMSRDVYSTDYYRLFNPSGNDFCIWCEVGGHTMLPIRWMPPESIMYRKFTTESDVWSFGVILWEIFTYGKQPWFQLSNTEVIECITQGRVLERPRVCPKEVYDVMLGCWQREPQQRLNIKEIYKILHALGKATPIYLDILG
T6 sequence (P04629 440-796 limits assumed): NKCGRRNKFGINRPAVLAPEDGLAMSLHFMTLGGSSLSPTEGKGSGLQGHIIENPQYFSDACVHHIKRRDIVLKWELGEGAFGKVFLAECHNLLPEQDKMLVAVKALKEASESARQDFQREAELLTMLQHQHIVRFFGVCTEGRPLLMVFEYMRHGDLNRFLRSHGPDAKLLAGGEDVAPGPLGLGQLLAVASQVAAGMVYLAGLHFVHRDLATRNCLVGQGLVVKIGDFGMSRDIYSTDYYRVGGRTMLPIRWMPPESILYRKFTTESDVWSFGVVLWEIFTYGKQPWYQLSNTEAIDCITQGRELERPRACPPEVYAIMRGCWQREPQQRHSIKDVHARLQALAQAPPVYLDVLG

| Compound | IC50 (BaF3-ETV6-NTRK3) [nM] | IC50 (BaF3-ETV6-NTRK2) [nM] | inhibitory activity against cell proliferation of the Ba/F3-TRK stable strains (in words) (Ba/F3-TRK stable strains) | inhibitory activity against TRKs kinase (in words) (TRKs (TRK1, TRK2, TRK3)) | Residual percentage (%) 0 min ([1]; rat hepatocytes) [%] | Residual percentage (%) 5 min ([1]; rat hepatocytes) [%] | Residual percentage (%) 15 min ([1]; rat hepatocytes) [%] | Residual percentage (%) 30 min ([1]; rat hepatocytes) | Residual percentage (%) 60 min ([1]; rat hepatocytes) | Residual percentage (%) 120 min ([1]; rat hepatocytes) | half-life at 1 μM [1] [min] | IC50 (BaF3-CD74-NTRK1) [nM] | also measured |
| --- | --- | --- | --- | --- | --- | --- | --- | --- | --- | --- | --- | --- | --- |
| O=S(=O)(Nc1ccc2[nH]nc(/C=C/c3ccccn3)c2c1)c1cc(F)cc(F)c1 [DYX-165, (E)-3,5-difluoro-N-(3-(2-(pyridin-2-yl)vinyl)-1H-indazol-5-yl)benzenesulfonamide] | 43.7 | 48.9 | strong inhibitory activity | strong inhibitory activity | 100.00 | 92.73 | 84.16 | 73.15% | 59.81% | 58.02% | 154 | 126 | IC50 (TRKB): 3.2 nM; IC50 (TRKC): 2.4 nM; metabolic stability (in words) ([1]; rat hepatocytes, comparison with DYX244-1 and DYX318): better metabolic stability; IC50 (TRKA): 1.3 nM; Half-life ([2]; Sprague-Dawley, rat, plasma, oral administration, 25 mg/kg, read-out: Half-life (converted)): 1.54 h; Area under the drug-time curve (0-t) ([2]; oral administration, 25 mg/kg): 1035.70 µM·h; Area under the drug-time curve (0-∞) ([2]; oral administration, 25 mg/kg): 1035.78 µM·h; Maximum blood concentration ([2]; oral administration, 25 mg/kg): 91.56 µM; Time to Peak ([2]; oral administration, 25 mg/kg): 4.00 h; oral absorption properties (in words) ([2]; oral, comparison with DYX244-1): better oral absorption properties |
| C[C@]12CC[C@H]3[C@@H](CCC4=CC(=O)CC[C@@]43C)[C@@H]1CC[C@@H]2O [Testosterone, reference compound] | – | – | – | – | 100.00 | 21.21 | 5.78 | BQL | BQL | BQL | 2.23 | – | – |
| C[C@@H](Nc1ccc2[nH]nc(/C=C/c3ccccn3)c2c1)c1cc(F)cc(F)c1 [DYX-244-1, (R,E)-N-(1-(3,5-difluorophenyl)ethyl)-3-(2-(pyridin-2-yl)vinyl)-1H-indazol-5-amine] | – | – | – | strong inhibitory activity | 100.00 | 71.83 | 48.63 | 14.84% | 8.20% | 5.40% | 11.1 | – | Area under the drug-time curve (0-t) ([2]; intravenous injection, 2 mg/kg): 3.68 µM·h; Area under the drug-time curve (0-∞) ([2]; intravenous injection, 2 mg/kg): 3.69 µM·h; Half-life ([2]; intravenous injection, 2 mg/kg): 1.39 h; Maximum blood concentration ([2]; intravenous injection, 2 mg/kg): 6.77 µM; Removal rate ([2]; intravenous injection, 2 mg/kg): 1.44 L/h/kg; Time to Peak ([2]; intravenous injection, 2 mg/kg): 0.08 h; Bioavailability (%) ([2]; oral 10 mg/kg vs intravenous 2 mg/kg): 8.79%; Area under the drug-time curve (0-t) ([2]; oral administration, 10 mg/kg): 1.62 µM·h; Area under the drug-time curve (0-∞) ([2]; oral administration, 10 mg/kg): 1.64 µM·h; Half-life ([2]; oral administration, 10 mg/kg): 1.13 h; Maximum blood concentration ([2]; oral administration, 10 mg/kg): 0.36 µM; Time to Peak ([2]; oral administration, 10 mg/kg): 2.00 h |
| C[C@@H](Nc1cnc2[nH]nc(/C=C/c3ccccn3)c2c1)c1cc(F)cc(F)c1 [DYX-318, (R,E)-N-(1-(3,5-difluorophenyl)ethyl)-3-(2-(pyridin-2-yl)vinyl)-1H-pyrazolo[3,4-b]pyridin-5-amine] | 9.1 | 33.6 | strong inhibitory activity | strong inhibitory activity | 100.00 | 27.83 | 12.24 | 1.36% | 0.27% | 0.20% | 2.71 | 9.6 | – |
